From ChEMBL document CHEMBL3832761, “MMV Pathogen Box Bioactivity Data” (2017)
≈ marks a conversion by molar mass, not a printed value.

Experiments:
Format in all cases: functional
[1] = tested on: Mycobacterium tuberculosis; experiment: AntiMycobacterium tuberculosis activity Replicating form: Average MIC90 (uM)
[2] = tested on: Mycobacterium tuberculosis; experiment: AntiMycobacterium tuberculosis activity day 21 MIC99 in 7H9/2.5mM butyrate/pH6/0.1mM nitrite MIC99 (uM); details: 504 h
[3] = tested on: Mycobacterium tuberculosis; experiment: AntiMycobacterium tuberculosis activity 1-week 7H9/glucose/BSA/Tx MIC (uM); details: 168 h
[4] = tested on: Mycobacterium tuberculosis; experiment: AntiMycobacterium tuberculosis activity 1-week 7H9/cholesterol/BSA/Tx MIC (uM); details: 168 h
[5] = tested on: Mycobacterium tuberculosis; experiment: AntiMycobacterium tuberculosis activity day 21 in 7H9/2.5mM butyrate/pH6/0.1mM nitrite MIC90 (uM); details: 504 h
[6] = tested on: Mycobacterium tuberculosis; experiment: AntiMycobacterium tuberculosis activity 2-week 7H9/glucose/BSA/Tx MIC (uM); details: 336 h
[7] = tested on: Mycobacterium tuberculosis; experiment: AntiMycobacterium tuberculosis activity 1-week 7H9/ADC/Tw MIC (uM); details: 168 h
[8] = tested on: Mycobacterium tuberculosis; experiment: (§1) AntiMycobacterium tuberculosis activity day 10 in 7H9/2.5mM butyrate/pH6/0.1mM nitrite MIC90 (uM); details: 240 h
[9] = tested on: Mycobacterium tuberculosis; experiment: AntiMycobacterium tuberculosis activity 2-week Alamar Blue 7H9/cholesterol/BSA/Tx MIC (uM); details: 336 h
[10] = tested on: HepG2; experiment: HepG2 CC50 (uM) Cytotoxicity; details: Homo sapiens
[11] = tested on: Mycobacterium tuberculosis; experiment: AntiMycobacterium tuberculosis activity 2-week 7H9/ADC/Tw MIC (uM); details: 336 h
[12] = tested on: Mycobacterium tuberculosis; experiment: AntiMycobacterium tuberculosis activity 2-week GAST/Fe MIC (uM); details: 336 h
[13] = tested on: Mycobacterium tuberculosis; experiment: AntiMycobacterium tuberculosis activity 1-week GAST/Fe MIC (uM); details: 168 h
[14] = tested on: Mycobacterium tuberculosis; experiment: AntiMycobacterium tuberculosis activity 2-week 7H9/DPPC/cholesterol/BSA/Tx MIC (uM); details: 336 h
[15] = tested on: Mycobacterium tuberculosis; experiment: as §1; details: 240 h; remark: listed apart in the source
[16] = tested on: Mycobacterium tuberculosis; experiment: AntiMycobacterium tuberculosis activity 2-week Alamar Blue 7H9/ADC/Tw MIC (uM); details: 336 h
[17] = tested on: Mycobacterium tuberculosis; experiment: AntiMycobacterium tuberculosis activity Non-Replicating form: Average MIC90 (uM)
[18] = tested on: Mycobacterium tuberculosis; experiment: AntiMycobacterium tuberculosis activity 1-week 7H9/DPPC/cholesterol/BSA/Tx MIC (uM); details: 168 h

Compound	MIC90 [1] [µM]	MIC [2] [µM]	MIC [3] [µM]	MIC [4] [µM]	MIC90 [5] [µM]	MIC [6] [µM]	MIC [7] [µM]	MIC90 [8] [µM]	MIC [9] [µM]	CC50 [10] [µM]	MIC [11] [µM]	MIC [12] [µM]	MIC [13] [µM]	MIC [14] [µM]	MIC90 [15] [µM]	MIC [16] [µM]	MIC90 [17] [µM]	MIC [18] [µM]
COc1ccc2nc(C)cc(OCC(=O)NCc3ccccc3)c2c1	> 100	> 50	> 50	> 50	> 50	> 50	> 50	> 50	3.13 (≈ 1.05 µg/mL)	> 100	> 50	1.56 (≈ 0.525 µg/mL)	0.78 (≈ 0.262 µg/mL)	> 50	> 50	6.25 (≈ 2.1 µg/mL)	27.1 (≈ 9.12 µg/mL)	12.5 (≈ 4.2 µg/mL)
Cc1ccc2[nH]c(C3CCCNC3)c(-c3ccncc3)c2c1 (configuration not stated)	19.5 (≈ 5.68 µg/mL)	25 (≈ 7.28 µg/mL)	25 (≈ 7.28 µg/mL)	6.25 (≈ 1.82 µg/mL)	12.5 (≈ 3.64 µg/mL)	50 (≈ 14.6 µg/mL)	37 (≈ 10.8 µg/mL)	6.25 (≈ 1.82 µg/mL)	9.4 (≈ 2.74 µg/mL)	12.7	50 (≈ 14.6 µg/mL)	2.3 (≈ 0.67 µg/mL)	1.56 (≈ 0.455 µg/mL)	9.4 (≈ 2.74 µg/mL)	25 (≈ 7.28 µg/mL)	12.5 (≈ 3.64 µg/mL)	50.5 (≈ 14.7 µg/mL)	9.4 (≈ 2.74 µg/mL)
CCc1ccc([C@@H]2C[C@H](C(F)(F)F)n3ncc(C(=O)NCc4ccc(OC)cc4)c3N2)cc1	0.24 (≈ 0.11 µg/mL)	> 50	0.6 (≈ 0.275 µg/mL)	0.2 (≈ 0.0917 µg/mL)	12.5 (≈ 5.73 µg/mL)	0.78 (≈ 0.358 µg/mL)	0.78 (≈ 0.358 µg/mL)	6.25 (≈ 2.87 µg/mL)	0.39 (≈ 0.179 µg/mL)	50.6	1.56 (≈ 0.715 µg/mL)	0.1 (≈ 0.0458 µg/mL)	0.1 (≈ 0.0458 µg/mL)	0.3 (≈ 0.138 µg/mL)	> 50	1.56 (≈ 0.715 µg/mL)	1.13 (≈ 0.518 µg/mL)	0.2 (≈ 0.0917 µg/mL)
NCC(c1cccs1)S(=O)(=O)c1ccccc1 (configuration not stated)	20.7 (≈ 5.52 µg/mL)	> 50	25 (≈ 6.68 µg/mL)	50 (≈ 13.4 µg/mL)	25 (≈ 6.68 µg/mL)	25 (≈ 6.68 µg/mL)	19 (≈ 5.08 µg/mL)	25 (≈ 6.68 µg/mL)	50 (≈ 13.4 µg/mL)	35.4	25 (≈ 6.68 µg/mL)	2.3 (≈ 0.615 µg/mL)	1.56 (≈ 0.417 µg/mL)	50 (≈ 13.4 µg/mL)	> 50	25 (≈ 6.68 µg/mL)	19.6 (≈ 5.24 µg/mL)	50 (≈ 13.4 µg/mL)
CC(C)n1ncc2c(C(=O)NCC(c3cccs3)N3CCOCC3)cc(-c3ccccc3)nc21 (configuration not stated)	0.61 (≈ 0.29 µg/mL)	1.5 (≈ 0.713 µg/mL)	1.2 (≈ 0.571 µg/mL)	0.6 (≈ 0.285 µg/mL)	3.12 (≈ 1.48 µg/mL)	1.2 (≈ 0.571 µg/mL)	0.78 (≈ 0.371 µg/mL)	3.12 (≈ 1.48 µg/mL)	1.56 (≈ 0.742 µg/mL)	58	1.2 (≈ 0.571 µg/mL)	0.3 (≈ 0.143 µg/mL)	0.3 (≈ 0.143 µg/mL)	0.78 (≈ 0.371 µg/mL)	1.5 (≈ 0.713 µg/mL)	1.2 (≈ 0.571 µg/mL)	1.28 (≈ 0.609 µg/mL)	0.78 (≈ 0.371 µg/mL)
Cc1nnc(NCc2cccc(Cl)c2)c2ccccc12	> 100	> 50	> 50	19 (≈ 5.39 µg/mL)	> 50	> 50	50 (≈ 14.2 µg/mL)	25 (≈ 7.09 µg/mL)	> 50	76	> 50	0.6 (≈ 0.17 µg/mL)	0.2 (≈ 0.0568 µg/mL)	> 50	> 50	1.56 (≈ 0.443 µg/mL)	4.61 (≈ 1.31 µg/mL)	≥ 50
C[C@]1(COc2ccc(N3CCC(Oc4ccc(OC(F)(F)F)cc4)CC3)cc2)Cn2cc([N+](=O)[O-])nc2O1	0.08 (≈ 0.0428 µg/mL)	> 50	0.2 (≈ 0.107 µg/mL)	0.05 (≈ 0.0267 µg/mL)	12.5 (≈ 6.68 µg/mL)	0.05 (≈ 0.0267 µg/mL)	0.07 (≈ 0.0374 µg/mL)	0.39 (≈ 0.208 µg/mL)	0.6 (≈ 0.321 µg/mL)	72.5	0.15 (≈ 0.0802 µg/mL)	0.15 (≈ 0.0802 µg/mL)	0.1 (≈ 0.0534 µg/mL)	0.1 (≈ 0.0534 µg/mL)	> 50	0.15 (≈ 0.0802 µg/mL)	0.2 (≈ 0.107 µg/mL)	< 0.02
CC(=O)NCC1CN(c2ccc(-c3ccc(CO)cc3)c(F)c2)C(=O)O1 (configuration not stated)	0.49 (≈ 0.176 µg/mL)	1.5 (≈ 0.538 µg/mL)	0.6 (≈ 0.215 µg/mL)	0.39 (≈ 0.14 µg/mL)	0.78 (≈ 0.28 µg/mL)	0.6 (≈ 0.215 µg/mL)	0.39 (≈ 0.14 µg/mL)	0.39 (≈ 0.14 µg/mL)	0.39 (≈ 0.14 µg/mL)	> 100	0.6 (≈ 0.215 µg/mL)	0.3 (≈ 0.108 µg/mL)	0.1 (≈ 0.0358 µg/mL)	0.6 (≈ 0.215 µg/mL)	1.5 (≈ 0.538 µg/mL)	0.39 (≈ 0.14 µg/mL)	0.32 (≈ 0.115 µg/mL)	0.39 (≈ 0.14 µg/mL)
COc1cccc(-c2nc3c(N4CCCC4)cccc3n2CC2CCCN2)n1 (configuration not stated)	38.5 (≈ 14.5 µg/mL)	> 50	25 (≈ 9.44 µg/mL)	37 (≈ 14 µg/mL)	25 (≈ 9.44 µg/mL)	37 (≈ 14 µg/mL)	9.4 (≈ 3.55 µg/mL)	12.5 (≈ 4.72 µg/mL)	9.4 (≈ 3.55 µg/mL)	25	9.4 (≈ 3.55 µg/mL)	4.7 (≈ 1.77 µg/mL)	4.7 (≈ 1.77 µg/mL)	50 (≈ 18.9 µg/mL)	> 50	6.25 (≈ 2.36 µg/mL)	80.6 (≈ 30.4 µg/mL)	25 (≈ 9.44 µg/mL)
